Assay results: ChEMBL document CHEMBL5154648, “Antitumor activity of novel POLA1-HDAC11 dual inhibitors” (Eur J Med Chem, 2022)
Calls of active or inactive are those of the source. No cut-off for these calls is given here.

Experiments:
NCI-H460 [1] = assay: Induction of cell cycle arrest in human NCI-H460 cells assessed as accumulation of cells at G2/M phase at 0.12 uM after 72 hrs by flow cytometry (reference value: 21.1%); assay type: functional
NCI-H460 [2] = assay: Induction of cell cycle arrest in human NCI-H460 cells assessed as accumulation of cells at G0/1 phase at 0.12 uM after 72 hrs by flow cytometry (reference value: 46.8%); assay type: functional
MDA-MB-231 = assay: Antiproliferative activity against human MDA-MB-231 cells incubated for 24 hrs followed by incubating in drug-free medium for 48 hrs and measured by SRB assay; assay type: functional, cell-based
[3] = biological target: T1, DNA polymerase alpha catalytic subunit (Homo sapiens) (UniProt P09884); assay: Inhibition of recombinant POLA1 (unknown origin) using 5-Fluorescein-rGrGrArArArGrGrArCrGrArArArCrA-3 as substrate at 10 to 50 uM and measured by primer extension assay; conditions: dose 10-50 µM
T1 sequence (whole entry): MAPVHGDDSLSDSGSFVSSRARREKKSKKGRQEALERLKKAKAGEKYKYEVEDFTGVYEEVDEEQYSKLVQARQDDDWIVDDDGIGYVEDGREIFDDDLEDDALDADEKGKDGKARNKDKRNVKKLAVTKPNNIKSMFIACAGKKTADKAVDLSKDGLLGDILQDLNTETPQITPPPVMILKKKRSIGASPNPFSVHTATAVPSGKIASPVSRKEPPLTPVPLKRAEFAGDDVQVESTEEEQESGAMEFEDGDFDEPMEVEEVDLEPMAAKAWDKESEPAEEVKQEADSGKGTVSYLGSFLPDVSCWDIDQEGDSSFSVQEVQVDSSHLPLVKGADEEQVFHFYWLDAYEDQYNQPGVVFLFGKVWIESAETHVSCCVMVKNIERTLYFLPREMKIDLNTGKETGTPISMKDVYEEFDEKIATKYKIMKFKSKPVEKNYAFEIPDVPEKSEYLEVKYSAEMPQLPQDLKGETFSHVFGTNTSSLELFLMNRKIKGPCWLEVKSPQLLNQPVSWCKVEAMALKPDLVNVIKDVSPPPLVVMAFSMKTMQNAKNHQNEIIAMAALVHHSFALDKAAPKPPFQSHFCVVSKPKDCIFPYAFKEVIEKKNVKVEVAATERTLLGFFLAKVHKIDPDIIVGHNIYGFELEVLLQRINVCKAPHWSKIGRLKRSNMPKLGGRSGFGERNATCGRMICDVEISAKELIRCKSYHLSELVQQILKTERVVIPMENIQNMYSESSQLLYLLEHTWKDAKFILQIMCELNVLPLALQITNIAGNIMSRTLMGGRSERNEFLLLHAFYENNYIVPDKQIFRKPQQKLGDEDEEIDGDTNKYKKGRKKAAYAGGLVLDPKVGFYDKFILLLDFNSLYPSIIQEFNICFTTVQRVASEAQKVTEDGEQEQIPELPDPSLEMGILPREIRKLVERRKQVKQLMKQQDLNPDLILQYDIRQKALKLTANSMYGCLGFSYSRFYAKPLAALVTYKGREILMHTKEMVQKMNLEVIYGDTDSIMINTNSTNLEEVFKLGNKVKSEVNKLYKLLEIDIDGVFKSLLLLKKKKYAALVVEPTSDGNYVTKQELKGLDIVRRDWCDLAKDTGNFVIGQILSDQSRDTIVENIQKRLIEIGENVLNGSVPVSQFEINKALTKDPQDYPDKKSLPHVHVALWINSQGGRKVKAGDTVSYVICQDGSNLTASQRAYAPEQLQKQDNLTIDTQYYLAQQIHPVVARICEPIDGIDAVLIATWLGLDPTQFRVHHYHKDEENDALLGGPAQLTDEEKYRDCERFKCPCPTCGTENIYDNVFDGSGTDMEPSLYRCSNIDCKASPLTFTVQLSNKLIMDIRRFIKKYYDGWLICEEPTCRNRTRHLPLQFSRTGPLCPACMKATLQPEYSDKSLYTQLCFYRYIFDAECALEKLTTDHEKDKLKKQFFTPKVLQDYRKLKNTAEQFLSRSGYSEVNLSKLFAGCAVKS

NCI-H460 [4] = assay: Antitumor activity against human NCI-H460 cells xenografted in mouse assessed as tumor growth inhibition at 50 mg/kg, po qd administered 5 times a week for 3 to 4 weeks; assay type: functional; conditions: time 3-4 weeks, read-out: TGI
NCI-H460 [5] = assay: Induction of DNA damage in human NCI-H460 cells at 0.1 to 0.4 uM assessed as increase in p-H2AX levels and measured by Western blot analysis; assay type: functional, cell-based; conditions: dose 0.1-0.4 µM
NCI-H460 [6] = assay: Antiproliferative activity against human NCI-H460 cells at 0.1 to 0.4 uM assessed as reduction in p-ERK1/2 level and measured by Western blot analysis; assay type: functional, cell-based; conditions: dose 0.1-0.4 µM
[7] = biological target: T2, Histone deacetylase 11 (Homo sapiens) (UniProt Q96DB2); assay: Inhibition of HDAC11 in human NCI-H460 cells at 0.1 to 0.4 uM assessed as induction of p53 acetylation and measured by Western blot analysis; assay type: cell-based; conditions: dose 0.1-0.4 µM
T2 sequence (whole entry): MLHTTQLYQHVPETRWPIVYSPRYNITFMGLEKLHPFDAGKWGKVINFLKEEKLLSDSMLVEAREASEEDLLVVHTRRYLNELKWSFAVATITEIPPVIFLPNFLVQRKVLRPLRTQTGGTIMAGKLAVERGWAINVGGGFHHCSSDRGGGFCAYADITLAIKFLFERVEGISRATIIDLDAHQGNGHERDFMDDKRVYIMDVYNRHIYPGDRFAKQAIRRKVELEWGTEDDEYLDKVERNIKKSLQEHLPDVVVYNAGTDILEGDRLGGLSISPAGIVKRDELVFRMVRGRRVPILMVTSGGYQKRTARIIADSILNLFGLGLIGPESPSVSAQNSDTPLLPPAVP

NCI-H460 [8] = assay: Down-regulation of POLA1 mRNA expression in human NCI-H460 cells at 0.25 uM measured by qRT-PCR assay; assay type: functional, cell-based
NCI-H460 [9] = assay: Antiproliferative activity against human NCI-H460 cells at 0.1 to 0.4 uM assessed as reduction in PIN1 level and measured by Western blot analysis; assay type: functional, cell-based; conditions: dose 0.1-0.4 µM
NCI-H460 [10] = assay: Induction of cell cycle arrest in human NCI-H460 cells assessed as accumulation of cells at S phase at 0.25 uM after 72 hrs by flow cytometry (reference value: 32.1%); assay type: functional
NCI-H460 [11] = assay: Induction of cell cycle arrest in human NCI-H460 cells assessed as accumulation of cells at G0/1 phase at 0.26 uM after 72 hrs by flow cytometry (reference value: 46.8%); assay type: functional
NCI-H460 [12] = assay: Induction of cell cycle arrest in human NCI-H460 cells assessed as accumulation of cells at S phase at 0.26 uM after 72 hrs by flow cytometry (reference value: 32.1%); assay type: functional
NCI-H460 [13] = assay: Down-regulation of POLA1 mRNA expression in human NCI-H460 cells at 0.26 uM measured by qRT-PCR assay; assay type: functional, cell-based
A2780 = assay: Induction of cell cycle arrest in human A2780 cells assessed as accumulation of cells at S phase at 0.95 uM after 72 hrs by flow cytometry (reference value: 36.3%); assay type: functional

| IC50 (MDA-MB-231) | inhibition [3] | inhibition [7] | SMILES | Activity (NCI-H460 [1]) | Activity (NCI-H460 [2]) | inhibition in vivo at 50 mg/kg (NCI-H460 [4]) | Activity (NCI-H460 [5]) | Activity (NCI-H460 [6]) | Activity (NCI-H460 [8]) | Activity (NCI-H460 [9]) | Activity (NCI-H460 [10]) | Activity (NCI-H460 [11]) | Activity (NCI-H460 [12]) | Activity (NCI-H460 [13]) | Activity (A2780) |
| --- | --- | --- | --- | --- | --- | --- | --- | --- | --- | --- | --- | --- | --- | --- | --- |
| 1100 nM |  |  | O=C(O)C=Cc1ccc(-c2ccc(O)c(C34CC5CC(CC(C5)C3)C4)c2)cc1 | 6.5% | 13.8% |  |  |  |  |  |  |  |  |  |  |
| 1900 nM | Active | Active | O=C(O)C=Cc1ccc(-c2ccc(OCC(=O)NO)c(C34CC5CC(CC(C5)C3)C4)c2)cc1 |  |  | 61% | Active | Active | Active | Active | 80.9% |  |  |  |  |
|  | Active | Active | CC(Oc1ccc(-c2ccc(C=CC(=O)O)cc2)cc1C12CC3CC(CC(C3)C1)C2)C(=O)NO (stereo unspecified) |  |  |  | Active | Active |  | Active |  | 10.9% | 81.4% | Active | 86.2% |
